Measurements: patent US8410049B2, “Methods and kits for preventing hypoglycemia” (Cebix, priority 2009, dated 2013)

Tested on: type 1 diabetes patients with peripheral neuropathy
Test: ECG and vital signs
Assay type: in vivo, human
Conditions: for BPd (diastolic blood pressure), change from baseline to 6 months treatment (visit 4), Mean ± SD / BPd (diastolic blood pressure), change from baseline to 6 months treatment (visit 4), Median / BPs (systolic blood pressure), change from baseline to 6 months treatment (visit 4), Mean ± SD / BPs (systolic blood pressure), change from baseline to 6 months treatment (visit 4), Median / Heart rate, change from baseline to 6 months treatment (visit 4), Mean ± SD / Heart rate, change from baseline to 6 months treatment (visit 4), Median / QTc-interval Bazett, change from baseline to 6 months treatment (visit 4), Mean ± SD / QTc-interval Bazett, change from baseline to 6 months treatment (visit 4), Median / QTc-interval Fredericia, change from baseline to 6 months treatment (visit 4), Mean ± SD / QTc-interval Fredericia, change from baseline to 6 months treatment (visit 4), Median: PP data set
Experimental: At the final clinical visit (at 6 months from S/B visit), a safety assessment including physical examination, ECG, vital signs, body weight, and sampling for clinical safety laboratory tests were performed. Furthermore, the metabolic control (HbA1c) was assessed, as well as C-peptide antibodies and C-peptide levels in plasma. All efficacy variables including SCV, SNAP, MCV, MDL, CMAP, QST were performed (two examinations within 2-14 days). E/I ratio and neurological status were also assessed. All used and unused clinical trial medication was returned by the patient and drug accountability was performed by study staff. The patient diary was reviewed including recording of concomitant medication, AEs, and drug accountability. FIG. 1 summarizes the study procedures and assessments conducted at each time point.

In the case of `CC(C)C[C@H](NC(=O)[C@H](C)NC(=O)[C@H](CC(C)C)NC(=O)[C@@H]1CCCN1C(=O)[C@H](CCC(N)=O)NC(=O)[C@H](CC(C)C)NC(=O)[C@H](CO)NC(=O)CNC(=O)[C@H](C)NC(=O)CNC(=O)[C@@H]1CCCN1C(=O)CNC(=O)CNC(=O)CNC(=O)[C@H](CC(C)C)NC(=O)[C@H](CCC(=O)O)NC(=O)[C@@H](NC(=O)[C@H](CCC(N)=O)NC(=O)CNC(=O)[C@@H](NC(=O)[C@H](CCC(N)=O)NC(=O)[C@H](CC(C)C)NC(=O)[C@H](CC(=O)O)NC(=O)[C@H](CCC(=O)O)NC(=O)[C@H](C)NC(=O)[C@@H](N)CCC(=O)O)C(C)C)C(C)C)C(=O)N[C@@H](CCC(=O)O)C(=O)NCC(=O)N[C@@H](CO)C(=O)N[C@@H](CC(C)C)C(=O)N[C@@H](CCC(N)=O)C(=O)O` [C-peptide, Recombinant human C-peptide], the “BPd (diastolic blood pressure), change from baseline to 6 months treatment (visit 4), Mean ± SD” value (High-dose C-peptide, n = 39) is reported as −2.6 ± 8.0 mm Hg, the “BPd (diastolic blood pressure), change from baseline to 6 months treatment (visit 4), Median” value (High-dose C-peptide, n = 39) is reported as −1.0 mm Hg and the “BPs (systolic blood pressure), change from baseline to 6 months treatment (visit 4), Mean ± SD” value (High-dose C-peptide, n = 39) is reported as −8.8 ± 10.0 mm Hg. For the same compound, the “BPs (systolic blood pressure), change from baseline to 6 months treatment (visit 4), Median” value (High-dose C-peptide, n = 39) was −8.0 mm Hg, the “Heart rate, change from baseline to 6 months treatment (visit 4), Mean ± SD” value (High-dose C-peptide, n = 39) was −3.2 ± 10.0 bpm and the “Heart rate, change from baseline to 6 months treatment (visit 4), Median” value (High-dose C-peptide, n = 39) was −4.0 bpm. For the same compound, the “QTc-interval Bazett, change from baseline to 6 months treatment (visit 4), Mean ± SD” value (High-dose C-peptide, n = 39) was -4.5 ± 20.3 ms, the “QTc-interval Bazett, change from baseline to 6 months treatment (visit 4), Median” value (High-dose C-peptide, n = 39) was 0.0 ms and the “QTc-interval Fredericia, change from baseline to 6 months treatment (visit 4), Mean ± SD” value (High-dose C-peptide, n = 39) was -0.5 ± 16.2 ms. For the same compound, the “QTc-interval Fredericia, change from baseline to 6 months treatment (visit 4), Median” value (High-dose C-peptide, n = 39) was 0.0 ms, the “Decrease in systolic blood pressure compared to the low-dose C-peptide group” value (High-dose C-peptide, p<0.004, not different from placebo) was “significantly greater decrease” and the “BPd (diastolic blood pressure), change from baseline to 6 months treatment (visit 4), Mean ± SD” value (Low-dose C-peptide, n = 53) was −2.7 ± 8.2 mm Hg. For the same compound, the “BPd (diastolic blood pressure), change from baseline to 6 months treatment (visit 4), Median” value (Low-dose C-peptide, n = 53) was −1.0 mm Hg, the “BPs (systolic blood pressure), change from baseline to 6 months treatment (visit 4), Mean ± SD” value (Low-dose C-peptide, n = 53) was −2.1 ± 12.8 mm Hg and the “BPs (systolic blood pressure), change from baseline to 6 months treatment (visit 4), Median” value (Low-dose C-peptide, n = 53) was −1.0 mm Hg. The “Heart rate, change from baseline to 6 months treatment (visit 4), Mean ± SD” value (Low-dose C-peptide, n = 53) was −0.9 ± 8.2 bpm, the “Heart rate, change from baseline to 6 months treatment (visit 4), Median” value (Low-dose C-peptide, n = 53) was −2.0 bpm and the “QTc-interval Bazett, change from baseline to 6 months treatment (visit 4), Mean ± SD” value (Low-dose C-peptide, n = 53) was -0.1 ± 17.5 ms. For the same compound, the “QTc-interval Bazett, change from baseline to 6 months treatment (visit 4), Median” value (Low-dose C-peptide, n = 53) was 0.0 ms, the “QTc-interval Fredericia, change from baseline to 6 months treatment (visit 4), Mean ± SD” value (Low-dose C-peptide, n = 53) was 0.9 ± 14.1 ms and the “QTc-interval Fredericia, change from baseline to 6 months treatment (visit 4), Median” value (Low-dose C-peptide, n = 53) was 1.3 ms. For the same compound, the “Changes in heart rate, blood pressure, and QTc” value (any of the three treatment groups, 6 months) was “nor were there any significant changes” and the “Abnormalities in ECG” value (during study medication treatment) was “no clinically significant abnormalities”.
